Measured values taken from BindingDB's records for doi:10.3109/14756366.2011.637202 (Agri Ibrahim Cecen University, 2012).
One block for each compound: values may come before it.

Assays:
Experiment in all cases: Esterase Activity Assay
[1] = target: Carbonic anhydrase 6 (Homo sapiens, UniProt P23280)
[2] = target: Carbonic anhydrase 2 (Homo sapiens, UniProt P00918)
[3] = target: Carbonic anhydrase 4 (Homo sapiens, UniProt P22748)
[4] = target: Carbonic anhydrase 1 (Homo sapiens, UniProt P00915)
Sequence of Carbonic anhydrase 1 (P00915 whole entry): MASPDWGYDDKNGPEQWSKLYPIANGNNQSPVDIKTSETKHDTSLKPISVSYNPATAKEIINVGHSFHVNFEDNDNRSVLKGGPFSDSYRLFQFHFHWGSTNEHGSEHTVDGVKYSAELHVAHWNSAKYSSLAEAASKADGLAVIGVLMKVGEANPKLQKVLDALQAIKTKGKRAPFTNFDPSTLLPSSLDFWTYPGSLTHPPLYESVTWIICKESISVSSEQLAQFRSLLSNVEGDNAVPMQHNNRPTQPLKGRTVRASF

Sequence of Carbonic anhydrase 6 (P23280 whole entry): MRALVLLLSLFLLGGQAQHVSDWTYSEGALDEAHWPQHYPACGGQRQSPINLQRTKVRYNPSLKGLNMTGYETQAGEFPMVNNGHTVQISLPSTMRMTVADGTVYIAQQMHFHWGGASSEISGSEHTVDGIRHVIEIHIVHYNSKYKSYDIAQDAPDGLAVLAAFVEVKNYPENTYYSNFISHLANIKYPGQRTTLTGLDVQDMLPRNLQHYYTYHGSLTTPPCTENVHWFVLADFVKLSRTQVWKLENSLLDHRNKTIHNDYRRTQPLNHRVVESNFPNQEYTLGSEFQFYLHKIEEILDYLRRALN
Sequence of Carbonic anhydrase 4 (P22748 whole entry): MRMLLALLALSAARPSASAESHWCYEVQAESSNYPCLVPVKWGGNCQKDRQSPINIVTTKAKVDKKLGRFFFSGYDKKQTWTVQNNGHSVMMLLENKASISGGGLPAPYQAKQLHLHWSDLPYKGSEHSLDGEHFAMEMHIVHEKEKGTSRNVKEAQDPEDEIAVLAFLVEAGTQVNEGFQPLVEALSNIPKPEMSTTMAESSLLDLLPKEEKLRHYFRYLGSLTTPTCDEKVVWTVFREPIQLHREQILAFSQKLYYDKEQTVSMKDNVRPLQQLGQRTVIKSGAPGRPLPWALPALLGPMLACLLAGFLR

Compound: Oc1cccc(O)c1O
Ki [1]: 6.83 µM
Ki [2]: 0.52 µM
Ki [3]: 0.49 µM

Compound: COc1cc(C=O)ccc1OS(C)(=O)=O [4-Formyl-2-methoxyphenyl methanesulfonate (15)]
Ki [1]: 12.1 µM
Ki [2]: 6.45 µM
Ki [4]: 79.1 µM
Ki [3]: 8.14 µM

Compound: CS(=O)(=O)Oc1ccc(OS(C)(=O)=O)cc1 [1,4-Phenylene dimethanesulfonate (6)]
Ki [1]: 28.4 µM
Ki [2]: 4.23 µM
Ki [4]: 22.1 µM
Ki [3]: 9.12 µM

Compound: Oc1ccccc1
Ki [2]: 5.6 µM
Ki [3]: 9.7 µM

Compound: Oc1ccc(-c2ccccc2)cc1 [4-Hydroxybiphenyl]
Ki [1]: 85 µM
Ki [2]: 7.41 µM
Ki [4]: 19.5 µM
Ki [3]: 12.3 µM

Compound: CS(=O)(=O)Oc1ccccc1OS(C)(=O)=O [1,2-Phenylenedimethanesulfonate (13)]
Ki [1]: 313 µM
Ki [2]: 28.5 µM
Ki [4]: 196 µM
Ki [3]: 41.6 µM

Now from value to compound:

Ki [1]: 105 µM
Ki [2]: 8.7 µM
Ki [4]: 27.4 µM
Ki [3]: 15.4 µM
Compound: CS(=O)(=O)Oc1ccccc1 [Phenylmethanesulfonate (4)]

Ki [1]: 162 µM
Ki [2]: 12.2 µM
Ki [4]: 48.5 µM
Ki [3]: 26.5 µM
Compound: CS(=O)(=O)Oc1ccc(-c2ccccc2)cc1 [Biphenyl-4-ylmethanesulfonate (5)]

Ki [1]: 217 µM
Ki [2]: 2.98 µM
Ki [3]: 3.56 µM
Compound: COc1ccccc1O [1-Hydroxy-2-methoxybenzene]

Ki [1]: 458 µM
Ki [2]: 35.4 µM
Ki [4]: 478 µM
Ki [3]: 45.1 µM
Compound: CS(=O)(=O)Oc1cccc(OS(C)(=O)=O)c1OS(C)(=O)=O [Benzene-1,2,3-triyltrimethanesulfonate (11)]
